Source: patent US9322066B2, “Predictors for cancer treatment” (priority 2011, dated 2016)

How the values were obtained:
[1] = tested on: relapsed or refractory, rituximab-naive or -sensitive follicular B-cell NHL; assay: Overall survival (OS), Vc-R vs rituximab study, by biomarker; type: in vivo, human; parameters: OS Median: unit not given here
Excerpt: (§1) Non-Hodgkin lymphoma (NHL) encompasses several unique malignant lymphoid disease entities that vary in clinical behavior, morphologic appearance, immunologic, and molecular phenotype. […] A randomized, open-label, active-controlled, multicenter, multinational, prospective study to compare the efficacy and safety of the combination of bortezomib and rituximab (Vc-R) to single-agent rituximab in subjects who have relapsed or refractory, rituximab-naive or -sensitive follicular B-cell NHL was performed.
(§2) Subjects were centrally randomized to Treatment Groups A (Vc-R) or B (rituximab) in a 1:1 ratio taking into account the following stratification factors: • Follicular Lymphoma International Prognostic Index (FLIPI) score (low [0 or 1 factor], intermediate [2 factors], high [≧3 factors]); • Prior rituximab therapy (yes, no); • Time since last dose of anti-lymphoma therapy (≦1 year, >1 year); • Region (United States/Canada, European Union, Rest of World).
The following clinical endpoints were included in the analysis within each treatment group and an overall comparison was made with the biomarker-related endpoints: Progression-free survival, defined as the interval between the date of randomization and the date of progressive disease (PD) or death, whichever is first reported in the ITT population; overall survival; overall response rate (complete response [CR]+CR unconfirmed [CRu]+partial response [PR]); overall CR rate (CR+CRu); duration of response; time to next anti-lymphoma therapy; and treatment free interval.
Overall Survival was measured from the date of randomization to the date of the subject's death. If the subject was alive or the vital status was unknown, it was censored at the date that the subject was last known to be alive. Similar to PFS and TTP, the Cox proportional hazard model was used to evaluate the association between biomarker endpoints and OS. Kaplan-Meier survival curves were presented. Analyses were done for the population overall and by treatment group, and each of these analyses was stratified by the covariates used for PFS.

[2] = tested on: relapsed or refractory, rituximab-naive or -sensitive follicular B-cell NHL; assay: Overall response rate (CR+CRu+PR), Vc-R vs rituximab study, by biomarker; type: in vivo, human; conditions: Biomarker positive (PSMB1 P11A heterozygote and CD68 Low)
Excerpt: as §1
as §2, with “World). […]” for “World).”
Comparison of the response rates between the treatment groups was conducted using the Fishers Exact Test. Duration of response, time to response, and time to clinical relapse were analyzed descriptively, where appropriate, and the biomarker subset was compared (if appropriate, determined as per the initial analysis) to the overall clinical cohort, by treatment group and overall. […]

[3] = 20S % POSITIVE CYTOPLASMIC SIGNAL: 95-100, 2 Prior Lines of Therapy
[4] = 20S % POSITIVE CYTOPLASMIC SIGNAL: 95-100, Ann Arbor Stage IV
[5] = BCL2/P59L: MD, Ann Arbor Stage IV
[6] = BCL2/P59L: MD, High FLIPI Score
[7] = BCL2/P59L: MD, High Tumor Burden
[8] = BCL2/P59L: MD, No Prior Rituximab Therapy
[9] = CD68 OVERALL POSITIVE: 26-50, 2 Prior Lines of Therapy
[10] = CD68 POSITIVE PERIFOLLICULAR: 26-50, 2 Prior Lines of Therapy
[11] = NOTCH/P2513L: MD, >65 years old
[12] = PSMB5/R24C: C/T, Ann Arbor Stage IV
[13] = PSMB5/R24C: C/T, Intermediate FLIPI Score

rituximab
OS Evt/N ([1]; 20S % POSITIVE CYTOPLASMIC SIGNAL: 0-20, 2 Prior Lines of Therapy): 1/10 | OS Evt/N ([1]; 20S % POSITIVE CYTOPLASMIC SIGNAL: 0-20, Ann Arbor Stage IV): 1/15 | OS Evt/N [1, 3]: 14/35 | OS Median [1, 3]: 1205 | OS Evt/N [1, 4]: 25/56 | OS Median [1, 4]: 1205 | Median OS (Vc − R vs R) ([1]; 20S INTENSITY CYTOPLASMIC SIGNAL >=3+ + P65 % POSITIVE CYTOPLASMIC SIGNAL <=90%, Selected (biomarker positive)): 717 days | OS Evt/N ([1]; 20S INTENSITY CYTOPLASMIC SIGNAL: ≦2+, Intermediate FLIPI Score): 2/48 | OS Evt/N ([1]; 20S INTENSITY CYTOPLASMIC SIGNAL: ≧3+, Male): 10/27 | Median OS (Vc − R vs R) ([1]; AGEGRP >65 + CD68 POSITIVE FOLLICULAR >50, Selected (biomarker positive)): 971 days | OS Evt/N [1, 5]: 5/5 | OS Median [1, 5]: 174 | OS Evt/N ([1]; BCL2/P59L: MD, Female): 6/8 | OS Median ([1]; BCL2/P59L: MD, Female): 536 | OS Evt/N [1, 6]: 6/6 | OS Median [1, 6]: 282 | OS Evt/N [1, 7]: 5/6 | OS Median [1, 7]: 282 | OS Evt/N [1, 8]: 5/5 | OS Median [1, 8]: 174 | OS Evt/N ([1]; BCL2/P59L: MD, Rest of World): 4/5 | OS Median ([1]; BCL2/P59L: MD, Rest of World): 174 | OS Evt/N ([1]; BCL2/R106H: MD, Male): 8/10 | OS Median ([1]; BCL2/R106H: MD, Male): 318 | OS Evt/N [1, 9]: 13/26 | OS Median [1, 9]: 1205 | OS Evt/N ([1]; CD68 OVERALL POSITIVE: 26-50, No High Tumor Burden): 14/54 | OS Evt/N ([1]; CD68 OVERALL POSITIVE: 51-75, Ann Arbor Stage III): 2/21 | OS Evt/N ([1]; CD68 POSITIVE FOLLICULAR: 0-25, No Prior Rituximab Therapy): 11/36 | OS Evt/N ([1]; CD68 POSITIVE FOLLICULAR: 0-25, ≦65 years old): 14/46 | OS Evt/N [1, 10]: 7/16 | OS Median [1, 10]: 1205 | OS Evt/N ([1]; CD68 POSITIVE PERIFOLLICULAR: 26-50, Male): 11/30 | OS Evt/N ([1]; CD68 POSITIVE PERIFOLLICULAR: 26-50, No High Tumor Burden): 10/41 | Median OS (Vc − R vs R) ([1]; FLIPI High + CD68 POSITIVE FOLLICULAR 0-50, Selected): 1263 days | Median OS (Vc − R vs R) ([1]; FLIPI High + P27 % NUCLEI POSITIVE 0-70, Selected): 1111 days | Median OS (Vc − R vs R) ([1]; FLIPI High + P27 SIGNAL INTENSITY >=2+, Selected): 1263 days | OS Evt/N [1, 11]: 8/13 | OS Median [1, 11]: 795 | OS Evt/N ([1]; NOTCH/P2513L: MD, No High Tumor Burden): 7/26 | OS Evt/N ([1]; NOTCH/Q2460X: MD, Male): 3/3 | OS Median ([1]; NOTCH/Q2460X: MD, Male): 595 | OS Evt/N ([1]; NOTCH/X28DEL: MND, 2 Prior Lines of Therapy): 20/56 | OS Evt/N ([1]; NOTCH/X28DEL: MND, Male): 26/75 | OS Evt/N ([1]; P27 % NUCLEI POSITIVE: 0-20, No High Tumor Burden): 3/29 | OS Evt/N ([1]; P27 % NUCLEI POSITIVE: 60-70, Male): 4/12 | OS Evt/N ([1]; P65 % POSITIVE CYTOPLASMIC SIGNAL: >90%, 2 Prior Lines of Therapy): 19/52 | OS Evt/N ([1]; P65 INTENSITY CYTOPLASMIC SIGNAL: ≦1+, Intermediate FLIPI Score): 1/17 | OS Evt/N ([1]; P65 INTENSITY CYTOPLASMIC SIGNAL: ≧2+, 2 Prior Lines of Therapy): 19/55 | OS Evt/N [1, 12]: 9/15 | OS Median [1, 12]: 717 | OS Evt/N [1, 13]: 4/10 | OS Median [1, 13]: 971 | OS Evt/N ([1]; PSMB9/R60H: A/A, 3 Prior Lines of Therapy): 1/6 | Median OS (Vc-R vs R) ([1]; SEX MALE + 20S % NUCLEAR STAINING 30-90, Selected): 1263 days | Median OS (Vc-R vs R) ([1]; Selected: FLIPI High and P65 % POSITIVE CYTOPLASMIC SIGNAL >90%): 1263 days | overall response rate [2]: 47.5%
